Measurements: US11744816B2, “Fixed dose combinations and formulations comprising ETC1002 and ezetimibe and methods of treating or reducing the risk of cardiovascular disease” (Esperion Therapeutics, Inc., priority 2015, dated 2023)

Tests used:
[1] = tested on: hypercholesterolemic patients; assay: Phase 2b double-blind trial: safety, treatment-emergent adverse events and laboratory abnormalities
Protocol: The study population included both statin-tolerant and statin-intolerant participants. Statin intolerance was defined as the inability to tolerate ≥2 statins because of muscle-related symptoms such as pain, weakness, or cramping that began or increased during statin therapy and resolved on statin discontinuation. At least 1 statin must have been administered at the lowest approved daily dose, defined as rosuvastatin 5 mg, atorvastatin 10 mg, simvastatin 10 mg, lovastatin 20 mg, pravastatin 40 mg, fluvastatin 40 mg, or pitavastatin 2 mg. Treatment with less than the lowest approved daily dose of a statin (i.e., skipping days) was considered equivalent to not tolerating 1 statin at the lowest approved daily dose.
Patients underwent a 5-week washout of all lipid-regulating drugs and dietary supplements and abstained from these drugs and supplements throughout the study. Patients also underwent a 5-week patient-only-blinded placebo run-in during the screening period (week −5 to week 0). This single-blind placebo run-in period was used to eliminate patients with muscle-related AEs during placebo treatment. Patients reporting new or worsening, unexplained muscle-related AEs during this run-in period were excluded from the study.
Patients were stratified (1:1) by history of statin intolerance and randomized at week 0 in a 4:4:4:1:1 ratio to once-daily treatment with capsules containing ETC-1002 120 mg, ETC-1002 180 mg, EZE, ETC-1002 120 mg plus EZE, or ETC-1002 180 mg plus EZE.
The safety of ETC-1002 was assessed using treatment-emergent AEs; hematology, serum chemistry, and urinalysis laboratory values; physical examination findings, vital sign measurements, electrocardiogram (ECG) readings; weight; and ankle and waist circumference measurements. AEs were coded using the Medical Dictionary for Regulatory Activities version 16.0 and evaluated by the investigator for severity and relation to study drug. Muscle-related AEs were defined as those from the system organ class of musculoskeletal and connective tissue disorders, except for those that were not obviously muscle related Terms included in the muscle-related AFE analysis were selected from this system organ class after database lock and before unblinding.
Safety analyses were performed on the safety population, which included randomized patients who received at least 1 dose of study drug. Baseline patient characteristics were summarized for the safety population by treatment group and statin-tolerance subgroup.
Muscle-related AEs also were summarized by statin-tolerance subgroup.

[2] = tested on: hypercholesterolemic patients; assay: Phase 2b double-blind trial: percent changes from baseline to week 12 in lipids and CRP; format: in vivo, human
Protocol: LDL-C was calculated using the Friedewald equation.
The primary endpoint was the percent change from baseline to week 12 in calculated LDL-C in patients treated with ETC-1002 monotherapy versus those treated with EZE alone. Secondary endpoints included the dose-response relationship between ETC-1002 and the percent change in LDL-C from baseline to week 12, the percent change in LDL-C from baseline to week 12 in patients treated with ETC-1002 plus EZE versus those treated with EZE alone, and the percent change from baseline to week 12 for all treatment groups in LDL particle number, apolipoprotein B, total cholesterol, non-high-density lipoprotein cholesterol (non-HDL-C), HDL-C, HDL particle number, apolipoprotein A-I, triglycerides, very-low-density lipoprotein (VLDL) particle number, and high-sensitivity C-reactive protein (CRP). Lipoprotein particle number was measured using nuclear magnetic resonance […].
An analysis of covariance was used to compare each ETC-1002 treatment group with EZE monotherapy for each of the efficacy endpoints. The primary model included the effects of treatment and statin intolerance and the baseline value as a covariate. Baseline was defined as the mean of values from weeks −1 and 0 for LDL-C, non-HDL-C, total cholesterol, HDL-C, and triglycerides. For all other lipid and biomarker measures, baseline was defined as the last value before the first dose of study drug. Missing values at week 12 were imputed using the last-observation-carried-forward procedure. When LDL-C could not be calculated (i.e., triglycerides >400 mg/dL), beta-quantification measurements were used to determine LDL-C values. Least-squares (LS) means and standard errors were obtained for each treatment group; differences in LS means and p-values were obtained for the treatment comparisons. Graphical methods (e.g., normal probability plot and histogram of residuals, plot of residuals vs. predicted values) or analytical methods (e.g., Shapiro-Wilk test), or both, were used to assess the model assumptions. Because of departures from normality observed in the parameters of triglycerides, CRP, and VLDL particle number, nonparametric analyses were performed for these measures, with p-values obtained from the Wilcoxon rank-sum test and median values presented.
Percent changes from baseline in LDL-C also were summarized by statin-tolerance subgroup. To assess the dose-response relationship for ETC-1002 monotherapy, the primary analysis of covariance model was used for the comparison of the ETC-1002 120 mg and ETC-1002 180 mg. Statistical testing of the efficacy endpoints was 2-sided and conducted at the 5% level of significance with no adjustment for multiple comparisons.

[3] = EZE 10 mg once daily, 12 weeks, safety population
[4] = EZE 10 mg once daily, 12 weeks, statin-intolerant patients
[5] = EZE 10 mg once daily, 12 weeks, statin-tolerant patients
[6] = EZE 10 mg once daily, 12 weeks, mITT, LS mean ± SE

## O=C1[C@H](CC[C@H](O)c2ccc(F)cc2)[C@@H](c2ccc(O)cc2)N1c1ccc(F)cc1 [EZE, (3R,4S)-1-(4-fluorophenyl)-3-[(3S)-3-(4-fluorophenyl)-3-hydroxypropyl]-4-(4-hydroxyphenyl)azetidin-2-one, reference compound]
[1]; EZE
  Alanine aminotransferase or aspartate aminotransferase, or both, increased >3 times the upper limit of normal at any measurement: 1 patients
  Serious AEs reported (events): transient ischemic attack
[1]; [3]
  Most common AEs: ALT increased: 1 (1%) n (%)
  Most common AEs: AST increased: 0 n (%)
  Most common AEs: Arthralgia: 4 (4%) n (%)
  Most common AEs: Back pain: 8 (8%) n (%)
  Most common AEs: Blood CK increased: 1 (1%) n (%)
  Most common AEs: Constipation: 1 (1%) n (%)
  Most common AEs: Headache: 1 (1%) n (%)
  Most common AEs: Myalgia: 6 (6%) n (%)
  Most common AEs: Nasopharyngitis: 4 (4%) n (%)
  Most common AEs: Upper respiratory tract infection: 1 (1%) n (%)
  Most common AEs: Urinary tract infection: 6 (6%) n (%)
  Treatment-emergent AEs: Any AE(s): 53 (54%) n (%)
  Treatment-emergent AEs: Discontinuation due to AE(s): 8 (8%) n (%)
  Treatment-emergent AEs: Serious AE(s): 1 (1%) n (%)
  Treatment-emergent AEs: Study drug-related AE(s): 19 (19%) n (%)
[1]; [4]
  Any muscle-related AE: 9 (18%) n (%)
  Muscle-related AE leading to discontinuation: 5 (10%) n (%)
  Muscle-related AEs: Muscle spasms: 1 (2%) n (%)
  Muscle-related AEs: Muscular weakness: 1 (2%) n (%)
  Muscle-related AEs: Musculoskeletal chest pain: 0 n (%)
  Muscle-related AEs: Musculoskeletal stiffness: 1 (2%) n (%)
  Muscle-related AEs: Myalgia: 6 (12%) n (%)
  Muscle-related AEs: Pain in extremity: 3 (6%) n (%)
  Muscle-related AEs: Sensation of heaviness: 1 (2%) n (%)
[1]; [5]
  Any muscle-related AE: 3 (6%) n (%)
  Muscle-related AE leading to discontinuation: 1 (2%) n (%)
  Muscle-related AEs: Muscle spasms: 2 (4%) n (%)
  Muscle-related AEs: Musculoskeletal pain: 1 (2%) n (%)
  Muscle-related AEs: Myalgia: 0 n (%)
[1]; EZE alone, entire study population
  Myalgia, patients affected: 6%
[2]; [6]
  Percent change from baseline to week 12 in Apolipoprotein A-I: 2.0 ± 1.1%
  Percent change from baseline to week 12 in Apolipoprotein B: −15.2 ± 1.2%
  Percent change from baseline to week 12 in HDL particle number: 6.7 ± 1.3%
  Percent change from baseline to week 12 in HDL-C: 5.0 ± 1.4%
  Percent change from baseline to week 12 in LDL particle number: −12.7 ± 1.7%
  Percent change from baseline to week 12 in LDL-C: −21.2 ± 1.3%
  Percent change from baseline to week 12 in Non-HDL-C: −18.7 ± 1.2%
  Percent change from baseline to week 12 in Total cholesterol: −14.3 ± 0.9%
[2]; EZE 10 mg once daily, 12 weeks, mITT, median (interquartile range)
  Percent change from baseline to week 12 in VLDL particle number: −12.6 (63.4) %
[2]; EZE alone
  CRP reduction: 10%
[2]; EZE alone, week 12
  HDL-C increase: 5%
